Experimental data taken from US4317914A, “Oxazolines” (Hoffmann-La Roche Inc., priority 1979, dated 1982).

Experiments:
[1] = Toxicity, 10 day test in mice; conditions: mouse, in vivo
plasma glucose [2] = assay: Activity on plasma glucose after repeated oral administration, fasted rat (1); assay type: in vivo; conditions: for Plasma glucose 3 hours after the last of 5 oral medications: 5 × p.o., *p < 0.05, ***p < 0.001; for Plasma glucose 3 hours after the last medication: ***p < 0.001
Procedure: (§1) The preparations containing the test compound were administered to rats and mice as a suspension in 5% gun arabic (10 ml/kg) through a stomach probe. Dogs received the preparations orally in gelatin capsules. The blank values were ascertained from animals which received only the vehicle or a blank capsule. The medication was administered daily at 9:00 a.m. and 3:00 p.m.
(§2) The plasma glucose (Tables 1 and 3) was determined according to the hexokinase method. The plasma was obtained from heparinized blood after decapitating the rats (1) or by puncturing the vena saphena (2), or there was used a filtrate, made protein-free with perchloric acid, of blood removed from the tip of the tail (3), (4), (5). The glucose in the urine was determined directly. In the case of (1), (2) and (4), the feed was withdrawn with the first of five medications.

[3] = Toxicity, 10 day test in rats; conditions: rat, in vivo
plasma glucose [4] = assay: Activity on plasma glucose after repeated oral administration, fasted dog (2); assay type: in vivo; conditions: 5 administrations
Procedure: as §1, §2

blood glucose [5] = assay: Activity on blood glucose after repeated oral administration, diabetic rat (3), streptozotocin; assay type: in vivo; conditions: 132 mg/kg p.o., 7 administrations
Procedure: as §1, §2
(§3) In the case of (3), female rats received 70 mg/kg of streptozotocin subcutaneously 2 weeks before the test. In the case of (3) and (5), quantitatively controlled feed supply existed.

blood glucose [6] = assay: Activity on blood glucose after repeated oral administration, obese-hyperglycemic mouse (5), quantitatively controlled feed supply; assay type: in vivo; conditions: 11 administrations
Procedure: as §1, §2, §3

blood glucose [7] = assay: Activity on blood glucose after repeated oral administration, obese-hyperglycemic mouse (4), feed withdrawn; assay type: in vivo; conditions: 294 mg/kg p.o., 5 administrations
Procedure: as §1, §2

[8] = 88 mg/kg p.o., 5 administrations

CN(C)c1ccc(C2OC(C)(C)N=C2c2ccccc2)cc1 (centres unmarked) [A, 5-[p-(dimethylamino)phenyl]-2,2-dimethyl-4-phenyl-3-oxazoline]
LD50 at 240 h [1]: 220 mg/kg | Plasma glucose 3 hours after the last of 5 oral medications (plasma glucose [2]; 300 μmol/kg): 78 % of the blank values | Plasma glucose 3 hours after the last of 5 oral medications (plasma glucose [2]; 1000 μmol/kg): 58 % of the blank values | Plasma glucose 0 hours after the last medication (plasma glucose [2]; 88 mg/kg p.o., 5 administrations, 0 h): 76 % of blank values | Plasma glucose 1 hour after the last medication (plasma glucose [2]; [8]): 76 % of blank values | Plasma glucose 3 hours after the last medication (plasma glucose [2]; [8]): 78 % of blank values | Plasma glucose 1 hour after the last medication (plasma glucose [2]; 294 mg/kg p.o., 5 administrations, **p < 0.01): 57 % of blank values | Plasma glucose 3 hours after the last medication (plasma glucose [2]; 294 mg/kg p.o., 5 administrations): 58 % of blank values | LD50 at 240 h [3]: 970 mg/kg | Plasma glucose 0 hours after the last medication (plasma glucose [4]; 29 mg/kg p.o., **p < 0.01): 82 % of blank values | Plasma glucose 1 hour after the last medication (plasma glucose [4]; 29 mg/kg p.o., *p < 0.05): 75 % of blank values | Plasma glucose 3 hours after the last medication (plasma glucose [4]; 29 mg/kg p.o., ***p < 0.001): 77 % of blank values | Plasma glucose 6 hours after the last medication (plasma glucose [4]; 29 mg/kg p.o., **p < 0.01): 74 % of blank values | Plasma glucose 24 hours after the last medication (plasma glucose [4]; 29 mg/kg p.o.): 84 % of blank values | Plasma glucose 0 hours after the last medication (plasma glucose [4]; 88 mg/kg p.o., **p < 0.01): 77 % of blank values | Plasma glucose 1 hour after the last medication (plasma glucose [4]; 88 mg/kg p.o.): 75 % of blank values | Plasma glucose 3 hours after the last medication (plasma glucose [4]; 88 mg/kg p.o., *p < 0.05): 78 % of blank values | Plasma glucose 6 hours after the last medication (plasma glucose [4]; 88 mg/kg p.o., *p < 0.05): 76 % of blank values | Plasma glucose 24 hours after the last medication (plasma glucose [4]; 88 mg/kg p.o., *p < 0.05): 74 % of blank values | Blood glucose 0 hours after the last medication (blood glucose [5]; 0 h): 101 % of blank values | Blood glucose 1 hour after the last medication (blood glucose [5]; 1 h): 101 % of blank values | Blood glucose 3 hours after the last medication (blood glucose [5]; 3 h): 90 % of blank values | Blood glucose 6 hours after the last medication (blood glucose [5]; 6 h, *p < 0.05): 86 % of blank values | Blood glucose 0 hours after the last medication (blood glucose [6]; 44 mg/kg p.o.): 83 % of blank values | Blood glucose 1 hour after the last medication (blood glucose [6]; 44 mg/kg p.o.): 77 % of blank values | Blood glucose 3 hours after the last medication (blood glucose [6]; 44 mg/kg p.o.): 84 % of blank values | Blood glucose 0 hours after the last medication (blood glucose [6]; 132 mg/kg p.o., **p < 0.01): 66 % of blank values | Blood glucose 1 hour after the last medication (blood glucose [6]; 132 mg/kg p.o., *p < 0.05): 61 % of blank values | Blood glucose 3 hours after the last medication (blood glucose [6]; 132 mg/kg p.o., ***p < 0.001): 55 % of blank values | Blood glucose 0 hours after the last medication (blood glucose [7]; 0 h, *p < 0.05): 63 % of blank values | Blood glucose 1 hour after the last medication (blood glucose [7]; 1 h): 74 % of blank values | Blood glucose 3 hours after the last medication (blood glucose [7]; 3 h): 71 % of blank values | Blood glucose 6 hours after the last medication (blood glucose [7]; 6 h, ***p < 0.001): 45 % of blank values

CCN(CC)c1ccc(C2OC(C)(C)N=C2c2ccccc2)cc1 (centres unmarked) [B, 5-[p-(diethylamino)-phenyl]-2,2-dimethyl-4-phenyl-3-oxazoline]
Plasma glucose 3 hours after the last of 5 oral medications (plasma glucose [2]; 300 μmol/kg): 91 % of the blank values | Plasma glucose 3 hours after the last of 5 oral medications (plasma glucose [2]; 1000 μmol/kg): 77 % of the blank values

CN(C=O)c1ccc(C2OC(C)(C)N=C2c2ccccc2)cc1 (centres unmarked) [C, 4'-(2,2-dimethyl-4-phenyl-3-oxazolin-5-yl)-N-methylformanilide]
Plasma glucose 3 hours after the last of 5 oral medications (plasma glucose [2]; 300 μmol/kg): 87 % of the blank values

CNc1ccc(C2OC(C)(C)N=C2c2ccccc2)cc1 (centres unmarked) [D, 5-[p-(methylamino)phenyl]-2,2-dimethyl-4-phenyl-3-oxazoline]
Plasma glucose 3 hours after the last of 5 oral medications (plasma glucose [2]; 300 μmol/kg): 86 % of the blank values | Plasma glucose 3 hours after the last of 5 oral medications (plasma glucose [2]; 1000 μmol/kg): 81 % of the blank values
